From the supplement of paper PMC10307832

How the values were obtained:
Assay in all cases: relative viability (nuclei count vs DMSO), 5 days (fraction); higher = more cells survive
ABC-1 = system: ABC-1
In short: (§1)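 After 5 days of treatment, lung cancer cells in 1536-well plates were fixed and stained in a single step (final 0.05% Triton X-100, 1% formaldehyde, 1 ug/ml Hoechst) and their nuclei counted on 4× images. Treatment had been applied by pin tool the day after seeding as one drug alone or as a fixed anchor-drug dose with five library-drug doses (not always all listed) in √10 steps. Relative viability is the nuclei count of treated wells divided by that of vehicle wells, and values are medians of duplicate plates.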

CAL-12T = system: CAL-12T
In short: as §1

ChaGo-K-1 = system: ChaGo-K-1
In short: as §1

HCC-366 = system: HCC-366
In short: as §1

HCC-78 = system: HCC-78
In short: as §1

LC-2-ad = system: LC-2-ad
In short: as §1

LOU-NH91 = system: LOU-NH91
In short: as §1

LU99A = system: LU99A
In short: as §1

NCI-H1395 = system: NCI-H1395
In short: as §1

NCI-H1651 = system: NCI-H1651
In short: as §1

NCI-H1734 = system: NCI-H1734
In short: as §1

NCI-H1755 = system: NCI-H1755
In short: as §1

NCI-H1793 = system: NCI-H1793
In short: as §1

NCI-H1944 = system: NCI-H1944
In short: as §1

NCI-H2087 = system: NCI-H2087
In short: as §1

NCI-H2170 = system: NCI-H2170
In short: as §1

NCI-H2228 = system: NCI-H2228
In short: as §1

NCI-H2405 = system: NCI-H2405
In short: as §1

NCI-H3122 = system: NCI-H3122
In short: as §1

NCI-H460 = system: NCI-H460
In short: as §1

PC-3 [JPC-3] = system: PC-3 [JPC-3]
In short: as §1

RERF-LC-KJ = system: RERF-LC-KJ
In short: as §1

UMC-11 = system: UMC-11
In short: as §1

Q: Which relative viability (ABC-1; first compound 0.04 µM) does the source give for `O=C(O)c1ccc(-c2c[nH]c3ncc(-c4ccccc4)cc23)cc1C1CCCC1` + O=C(c1cc(Cc2n[nH]c(=O)c3ccccc23)ccc1F)N1CCN(C(=O)C2CC2)CC1 [Olaparib] (partner 8 µM) here?
A: 1.03

Q: And the relative viability (ABC-1; first compound 0.1265 µM)?
A: 0.726

Q: And the relative viability (ABC-1; first compound 0.4 µM)?
A: 0.611

Q: What about the relative viability (ABC-1; first compound 1.265 µM) of the same compound?
A: 1.1

Q: What about the relative viability (CAL-12T; first compound 0.04 µM) of the same compound?
A: 0.656

Q: What about the relative viability (CAL-12T; first compound 0.1265 µM) of the same compound?
A: 0.668

Q: And the relative viability (CAL-12T; first compound 0.4 µM)?
A: 0.566

Q: And the relative viability (CAL-12T; first compound 1.265 µM)?
A: 0.379

Q: What about the relative viability (ChaGo-K-1; first compound 0.04 µM) of the same compound?
A: 0.418

Q: What about the relative viability (ChaGo-K-1; first compound 0.1265 µM) of the same compound?
A: 0.429

Q: And the relative viability (ChaGo-K-1; first compound 0.4 µM)?
A: 0.401

Q: What about the relative viability (ChaGo-K-1; first compound 1.265 µM) of the same compound?
A: 0.314

Q: What about the relative viability (HCC-366; first compound 0.04 µM) of the same compound?
A: 0.362

Q: And the relative viability (HCC-366; first compound 0.1265 µM)?
A: 0.419

Q: And the relative viability (HCC-366; first compound 0.4 µM)?
A: 0.422

Q: What about the relative viability (HCC-366; first compound 1.265 µM) of the same compound?
A: 0.376

Q: What about the relative viability (HCC-78; first compound 0.1265 µM) of the same compound?
A: 0.814

Q: And the relative viability (HCC-78; first compound 0.4 µM)?
A: 0.784

Q: What about the relative viability (HCC-78; first compound 1.265 µM) of the same compound?
A: 0.71

Q: What about the relative viability (LC-2-ad; first compound 0.04 µM) of the same compound?
A: 0.651

Q: What about the relative viability (LC-2-ad; first compound 0.1265 µM) of the same compound?
A: 0.642

Q: And the relative viability (LC-2-ad; first compound 0.4 µM)?
A: 0.623

Q: And the relative viability (LC-2-ad; first compound 1.265 µM)?
A: 0.566

Q: What about the relative viability (LOU-NH91; first compound 0.04 µM) of the same compound?
A: 0.893

Q: What about the relative viability (LOU-NH91; first compound 0.1265 µM) of the same compound?
A: 0.979

Q: And the relative viability (LOU-NH91; first compound 0.4 µM)?
A: 0.908

Q: What about the relative viability (LOU-NH91; first compound 1.265 µM) of the same compound?
A: 0.754

Q: What about the relative viability (LU99A; first compound 0.04 µM) of the same compound?
A: 0.255

Q: And the relative viability (LU99A; first compound 0.1265 µM)?
A: 0.302

Q: What about the relative viability (LU99A; first compound 0.4 µM) of the same compound?
A: 0.255

Q: What about the relative viability (LU99A; first compound 1.265 µM) of the same compound?
A: 0.25

Q: And the relative viability (NCI-H1395; first compound 0.04 µM)?
A: 0.473

Q: What about the relative viability (NCI-H1395; first compound 0.1265 µM) of the same compound?
A: 0.495

Q: What about the relative viability (NCI-H1395; first compound 0.4 µM) of the same compound?
A: 0.495

Q: What about the relative viability (NCI-H1395; first compound 1.265 µM) of the same compound?
A: 0.444

Q: And the relative viability (NCI-H1651; first compound 0.04 µM)?
A: 0.17

Q: And the relative viability (NCI-H1651; first compound 0.1265 µM)?
A: 0.187

Q: What about the relative viability (NCI-H1651; first compound 0.4 µM) of the same compound?
A: 0.176

Q: What about the relative viability (NCI-H1651; first compound 1.265 µM) of the same compound?
A: 0.192

Q: And the relative viability (NCI-H1734; first compound 0.04 µM)?
A: 0.562

Q: What about the relative viability (NCI-H1734; first compound 0.1265 µM) of the same compound?
A: 0.736

Q: What about the relative viability (NCI-H1734; first compound 0.4 µM) of the same compound?
A: 0.568

Q: And the relative viability (NCI-H1734; first compound 1.265 µM)?
A: 0.495

Q: What about the relative viability (NCI-H1755; first compound 0.04 µM) of the same compound?
A: 0.879

Q: And the relative viability (NCI-H1755; first compound 0.1265 µM)?
A: 0.943

Q: What about the relative viability (NCI-H1755; first compound 0.4 µM) of the same compound?
A: 0.885

Q: And the relative viability (NCI-H1755; first compound 1.265 µM)?
A: 0.86

Q: What about the relative viability (NCI-H1793; first compound 0.04 µM) of the same compound?
A: 0.878

Q: And the relative viability (NCI-H1793; first compound 0.1265 µM)?
A: 1.03

Q: And the relative viability (NCI-H1793; first compound 0.4 µM)?
A: 0.963

Q: And the relative viability (NCI-H1793; first compound 1.265 µM)?
A: 0.512

Q: And the relative viability (NCI-H1944; first compound 0.04 µM)?
A: 0.421

Q: And the relative viability (NCI-H1944; first compound 0.1265 µM)?
A: 0.444

Q: And the relative viability (NCI-H1944; first compound 0.4 µM)?
A: 0.412

Q: And the relative viability (NCI-H1944; first compound 1.265 µM)?
A: 0.36

Q: What about the relative viability (NCI-H2087; first compound 0.04 µM) of the same compound?
A: 0.686

Q: What about the relative viability (NCI-H2087; first compound 0.1265 µM) of the same compound?
A: 0.597

Q: And the relative viability (NCI-H2087; first compound 0.4 µM)?
A: 0.524

Q: What about the relative viability (NCI-H2087; first compound 1.265 µM) of the same compound?
A: 0.342

Q: What about the relative viability (NCI-H2170; first compound 0.04 µM) of the same compound?
A: 0.632

Q: What about the relative viability (NCI-H2170; first compound 0.1265 µM) of the same compound?
A: 0.606

Q: And the relative viability (NCI-H2170; first compound 0.4 µM)?
A: 0.569

Q: And the relative viability (NCI-H2170; first compound 1.265 µM)?
A: 0.468

Q: What about the relative viability (NCI-H2228; first compound 0.04 µM) of the same compound?
A: 0.728

Q: What about the relative viability (NCI-H2228; first compound 0.1265 µM) of the same compound?
A: 0.645

Q: And the relative viability (NCI-H2228; first compound 0.4 µM)?
A: 0.626

Q: What about the relative viability (NCI-H2228; first compound 1.265 µM) of the same compound?
A: 0.309

Q: What about the relative viability (NCI-H2405; first compound 0.04 µM) of the same compound?
A: 0.823

Q: And the relative viability (NCI-H2405; first compound 0.1265 µM)?
A: 0.951

Q: What about the relative viability (NCI-H2405; first compound 0.4 µM) of the same compound?
A: 0.778

Q: And the relative viability (NCI-H2405; first compound 1.265 µM)?
A: 0.584

Q: And the relative viability (NCI-H3122; first compound 0.04 µM)?
A: 0.654

Q: And the relative viability (NCI-H3122; first compound 0.1265 µM)?
A: 0.666

Q: And the relative viability (NCI-H3122; first compound 0.4 µM)?
A: 0.602

Q: And the relative viability (NCI-H3122; first compound 1.265 µM)?
A: 0.617

Q: What about the relative viability (NCI-H460; first compound 0.04 µM) of the same compound?
A: 0.523

Q: And the relative viability (NCI-H460; first compound 0.1265 µM)?
A: 0.463

Q: And the relative viability (NCI-H460; first compound 0.4 µM)?
A: 0.456

Q: And the relative viability (NCI-H460; first compound 1.265 µM)?
A: 0.42

Q: And the relative viability (PC-3 [JPC-3]; first compound 0.04 µM)?
A: 1.07

Q: And the relative viability (PC-3 [JPC-3]; first compound 0.1265 µM)?
A: 1.07

Q: And the relative viability (PC-3 [JPC-3]; first compound 0.4 µM)?
A: 1.15

Q: And the relative viability (PC-3 [JPC-3]; first compound 1.265 µM)?
A: 0.919

Q: What about the relative viability (RERF-LC-KJ; first compound 0.04 µM) of the same compound?
A: 0.9

Q: What about the relative viability (RERF-LC-KJ; first compound 0.1265 µM) of the same compound?
A: 0.788

Q: What about the relative viability (RERF-LC-KJ; first compound 0.4 µM) of the same compound?
A: 0.786

Q: What about the relative viability (RERF-LC-KJ; first compound 1.265 µM) of the same compound?
A: 0.473

Q: What about the relative viability (UMC-11; first compound 0.04 µM) of the same compound?
A: 0.366

Q: And the relative viability (UMC-11; first compound 0.1265 µM)?
A: 0.307

Q: What about the relative viability (UMC-11; first compound 0.4 µM) of the same compound?
A: 0.825

Q: What about the relative viability (UMC-11; first compound 1.265 µM) of the same compound?
A: 0.398
